The values below come from patent US20260217711A1, “TRIAZOLOPYRIDINYL ETHER LINKED COMPOUNDS AS KINASE INHIBITORS” (Bristol-Myers Squibb Company, priority 2023, published 2026).

The structures appear in SMILES notation.

As usually defined, the IC50 is the concentration that inhibits the measured activity by half.

One experiment concerns MLKL phosphorylation (pMLKL) in HT29-L23 cells. Nature of the experiment: MLKL Phosphorylation High-Content Assay. In kind it is cell-based. As to conditions: Homo sapiens, 6 h, necroptosis induced with human TNFα, SMAC mimetic and Z-VAD, read-out: LE pMLKL HC IC50. The method, then: Following 6 h incubation at 37° C. […] MLKL phosphorylation was detected using anti-MLKL (phospho […]) antibody (Abcam #ab187091) (1:1000 dilution in Blocking Buffer [PBS supplemented with 0.1% BSA]) with ON incubation at 4° C. […] Following another three cycles of washes in PBS, the microplates were sealed, and cellular images were acquired in the Cellomics ArrayScan VTI high-content imager equipped with an X1 camera. […] The image sets were analyzed using the Compartmental Analysis Bioapplication software (Cellomics). The level of MLKL phosphorylation was quantified as […].
In the case of `CC(O)(c1cccnc1)C(F)(F)CCOc1c(F)ccc(-c2ccn3nc(N)nc3c2)c1F` (single isomer, unassigned) [Example 36, 5-(3-(2-amino-[1,2,4]triazolo[1,5-a]pyridin-7-yl)-2,6-difluorophenoxy)-3,3-difluoro-2-(pyridin-3-yl)pentan-2-ol], the IC50 is 5 nM.

`CC(O)(c1ccccc1)C(F)(F)CCOc1cccc(-c2ccn3nc(N)nc3c2)c1F` (single isomer, unassigned) [Example 68, 5-(3-(2-amino-[1,2,4]triazolo[1,5-a]pyridin-7-yl)-2-fluorophenoxy)-3,3-difluoro-2-phenylpentan-2-ol]: the half-inhibitory concentration (IC50) was 0.1 nM. The same measure, in the same setting: for `Nc1nc2cc(-c3cccc(OCCC(F)(F)C(O)c4ccc(F)cc4)c3F)ccn2n1` (single isomer, unassigned) [Example 71, 4-(3-(2-amino-[1,2,4]triazolo[1,5-a]pyridin-7-yl)-2-fluorophenoxy)-2,2-difluoro-1-(4-fluorophenyl)butan-1-ol] the value was 0.6 nM.

The experiment is the same for the next values; noted with them: necroptosis induced with human TNFα, SMAC mimetic and Z-VAD, 6 h, read-out: LE pMLKL HC IC50.
For `CC(O)(c1ccccc1)C(F)(F)CCOc1c(F)ccc(-c2ccn3nc(N)nc3c2F)c1F` (single isomer, unassigned) [Example 37, 5-(3-(2-amino-8-fluoro-[1,2,4]triazolo[1,5-a]pyridin-7-yl)-2,6-difluorophenoxy)-3,3-difluoro-2-phenylpentan-2-ol], the half-maximal inhibitory concentration (IC50) was 110 nM. On the same count and under the same terms, as for `CC(O)(c1ccccc1)C(F)(F)CCOc1c(F)ccc(-c2ccn3nc(N)nc3c2)c1F` (single isomer, unassigned) [Example 39, 5-(3-(2-amino-[1,2,4]triazolo[1,5-a]pyridin-7-yl)-2,6-difluorophenoxy)-3,3-difluoro-2-phenylpentan-2-ol], the figure is 130 nM; as for `CC(O)(c1ccccc1)C(F)(F)CCOc1c(Cl)ccc(-c2ccn3nc(N)nc3c2)c1F` (single isomer, unassigned) [Example 41, 5-(3-(2-amino-[1,2,4]triazolo[1,5-a]pyridin-7-yl)-6-chloro-2-fluorophenoxy)-3,3-difluoro-2-phenylpentan-2-ol], 0.4 nM.

With `CC(O)(c1ccccc1)C(F)(F)CCOc1c(Cl)ccc(-c2ccn3nc(N)nc3c2)c1F` (single isomer, unassigned) [Example 42, 5-(3-(2-amino-[1,2,4]triazolo[1,5-a]pyridin-7-yl)-6-chloro-2-fluorophenoxy)-3,3-difluoro-2-phenylpentan-2-ol], the IC50 came out at 17 nM. On the same count and under the same terms, as for `CC(O)(c1ccc(Cl)cc1)C(F)(F)CCOc1c(Cl)ccc(-c2ccn3nc(N)nc3c2)c1F` (single isomer, unassigned) [Example 43, 5-(3-(2-amino-[1,2,4]triazolo[1,5-a]pyridin-7-yl)-6-chloro-2-fluorophenoxy)-2-(4-chlorophenyl)-3,3-difluoropentan-2-ol], the figure is 330 nM. With `CC(O)(c1ccc(Cl)cc1)C(F)(F)CCOc1c(Cl)ccc(-c2ccn3nc(N)nc3c2)c1F` (single isomer, unassigned) [Example 44, 5-(3-(2-amino-[1,2,4]triazolo[1,5-a]pyridin-7-yl)-6-chloro-2-fluorophenoxy)-2-(4-chlorophenyl)-3,3-difluoropentan-2-ol], the IC50 came to 0.6 nM. On the same count and under the same terms, as for `CC(O)(c1ccc(Cl)cc1)C(F)(F)CCOc1c(F)ccc(-c2ccn3nc(N)nc3c2)c1F` (single isomer, unassigned) [Example 45, 5-(3-(2-amino-[1,2,4]triazolo[1,5-a]pyridin-7-yl)-2,6-difluorophenoxy)-2-(4-chlorophenyl)-3,3-difluoropentan-2-ol], the figure is 80 nM; as for `CC(O)(c1ccc(Cl)cc1)C(F)(F)CCOc1c(F)ccc(-c2ccn3nc(N)nc3c2)c1F` (single isomer, unassigned) [Example 46, 5-(3-(2-amino-[1,2,4]triazolo[1,5-a]pyridin-7-yl)-2,6-difluorophenoxy)-2-(4-chlorophenyl)-3,3-difluoropentan-2-ol], 0.4 nM. Still for that read-out and setting: for `CC(O)(c1ccc(Cl)cc1)C(F)(F)CCOc1cccc(-c2ccn3nc(N)nc3c2)c1F` (single isomer, unassigned) [Example 47, 5-(3-(2-amino-[1,2,4]triazolo[1,5-a]pyridin-7-yl)-2-fluorophenoxy)-2-(4-chlorophenyl)-3,3-difluoropentan-2-ol] the value was 23 nM. Still for that read-out and setting: for `CC(O)(c1ccc(Cl)cc1)C(F)(F)CCOc1cccc(-c2ccn3nc(N)nc3c2)c1F` (single isomer, unassigned) [Example 48, 5-(3-(2-amino-[1,2,4]triazolo[1,5-a]pyridin-7-yl)-2-fluorophenoxy)-2-(4-chlorophenyl)-3,3-difluoropentan-2-ol] the value was 0.1 nM; for `CC(O)(c1ccc(F)cc1)C(F)(F)CCOc1c(Cl)ccc(-c2ccn3nc(N)nc3c2)c1F` (single isomer, unassigned) [Example 51, 5-(3-(2-amino-[1,2,4]triazolo[1,5-a]pyridin-7-yl)-6-chloro-2-fluorophenoxy)-3,3-difluoro-2-(4-fluorophenyl)pentan-2-ol], 150 nM. Regarding `Nc1nc2cc(-c3ccc(F)c(OCCC(F)(F)C(O)c4ccc(F)cc4)c3)ccn2n1` (single isomer, unassigned) [Example 53, 4-(5-(2-amino-[1,2,4]triazolo[1,5-a]pyridin-7-yl)-2-fluorophenoxy)-2,2-difluoro-1-(4-fluorophenyl)butan-1-ol], the IC50 turned out to be 1.5 nM.

`Nc1nc2cc(-c3ccc(F)c(OCCC(F)(F)C(O)c4ccc(F)cc4)c3)ccn2n1` (single isomer, unassigned) [Example 54, 4-(5-(2-amino-[1,2,4]triazolo[1,5-a]pyridin-7-yl)-2-fluorophenoxy)-2,2-difluoro-1-(4-fluorophenyl)butan-1-ol]: the IC50 is 32 nM.

In the case of `Nc1nc2cc(-c3ccc(F)c(OCCC(F)(F)C(O)c4ccc(F)cc4)c3F)ccn2n1` (single isomer, unassigned) [Example 55, 4-(3-(2-amino-[1,2,4]triazolo[1,5-a]pyridin-7-yl)-2,6-difluorophenoxy)-2,2-difluoro-1-(4-fluorophenyl)butan-1-ol], the IC50 is 0.3 nM.

On to `Nc1nc2cc(-c3ccc(F)c(OCCC(F)(F)C(O)c4ccc(F)cc4)c3F)ccn2n1` (single isomer, unassigned) [Example 56, 4-(3-(2-amino-[1,2,4]triazolo[1,5-a]pyridin-7-yl)-2,6-difluorophenoxy)-2,2-difluoro-1-(4-fluorophenyl)butan-1-ol], for which the IC50 was 4 nM. Still for that read-out and setting: as for `CC(O)(c1ccc(F)cc1)C(F)(F)CCOc1cc(-c2ccn3nc(N)nc3c2)ccc1F` (single isomer, unassigned) [Example 57, 5-(5-(2-amino-[1,2,4]triazolo[1,5-a]pyridin-7-yl)-2-fluorophenoxy)-3,3-difluoro-2-(4-fluorophenyl)pentan-2-ol], the figure is 130 nM; as for `CC(O)(c1ccc(F)cc1)C(F)(F)CCOc1cc(-c2ccn3nc(N)nc3c2)ccc1F` (single isomer, unassigned) [Example 58, 5-(5-(2-amino-[1,2,4]triazolo[1,5-a]pyridin-7-yl)-2-fluorophenoxy)-3,3-difluoro-2-(4-fluorophenyl)pentan-2-ol], 5 nM.

For `Nc1nc2cc(-c3ccc(Cl)c(OCCC(F)(F)C(O)c4ccc(F)cc4)c3F)ccn2n1` (single isomer, unassigned) [Example 59, 4-(3-(2-amino-[1,2,4]triazolo[1,5-a]pyridin-7-yl)-6-chloro-2-fluorophenoxy)-2,2-difluoro-1-(4-fluorophenyl)butan-1-ol], the 50% inhibitory concentration (IC50) stood at 2 nM. The same measure, in the same setting: as for `Nc1nc2cc(-c3ccc(Cl)c(OCCC(F)(F)C(O)c4ccc(F)cc4)c3F)ccn2n1` (single isomer, unassigned) [Example 60, 4-(3-(2-amino-[1,2,4]triazolo[1,5-a]pyridin-7-yl)-6-chloro-2-fluorophenoxy)-2,2-difluoro-1-(4-fluorophenyl)butan-1-ol], the figure is 5 nM; as for `Nc1nc2cc(-c3cccc(OCCC(F)(F)C(N)c4ccc(F)cc4)c3F)ccn2n1` (single isomer, unassigned) [Example 61, 7-(3-(4-amino-3,3-difluoro-4-(4-fluorophenyl)butoxy)-2-fluorophenyl)-[1,2,4]triazolo[1,5-a]pyridin-2-amine], 0.6 nM. On the same count and under the same terms, as for `Nc1nc2cc(-c3cccc(OCCC(F)(F)C(N)c4ccc(F)cc4)c3F)ccn2n1` (single isomer, unassigned) [Example 62, 7-(3-(4-amino-3,3-difluoro-4-(4-fluorophenyl)butoxy)-2-fluorophenyl)-[1,2,4]triazolo[1,5-a]pyridin-2-amine], the figure is 6 nM.

For the molecule `Cc1ccc(-c2ccn3nc(N)nc3c2)c(F)c1OCCC(F)(F)C(C)(O)c1ccc(F)cc1` (single isomer, unassigned) [Example 63, 5-(3-(2-amino-[1,2,4]triazolo[1,5-a]pyridin-7-yl)-2-fluoro-6-methylphenoxy)-3,3-difluoro-2-(4-fluorophenyl)pentan-2-ol], the IC50 is 8 nM.

Turning to `Cc1ccc(-c2ccn3nc(N)nc3c2)c(F)c1OCCC(F)(F)C(C)(O)c1ccc(F)cc1` (single isomer, unassigned) [Example 64, 5-(3-(2-amino-[1,2,4]triazolo[1,5-a]pyridin-7-yl)-2-fluoro-6-methylphenoxy)-3,3-difluoro-2-(4-fluorophenyl)pentan-2-ol], the half-maximal inhibitory concentration (IC50) was found to be 0.1 nM.

With `CC(O)(c1ccccc1)C(F)(F)CCOc1cccc(-c2ccn3nc(N)nc3c2)c1F` (single isomer, unassigned) [Example 67, 5-(3-(2-amino-[1,2,4]triazolo[1,5-a]pyridin-7-yl)-2-fluorophenoxy)-3,3-difluoro-2-phenylpentan-2-ol], the half-maximal inhibitory concentration (IC50) was determined as 4 nM.
